From publication PMC3471809 (Bioorganic & medicinal chemistry, 2012)
In brackets after ≈: the same amount, converted by molar mass. Read-outs that look alike come from different tables or passages of the source.

What was measured:
S. pneumoniae R6 = assay: microbe, parasite or virus in culture; conditions: Streptococcus pneumoniae, R6, read-out: MIC
S. aureus PlsY (SaPlsY) [1] = target: T1, S. aureus PlsY (SaPlsY) (Staphylococcus aureus, UniProt P67164); assay: biochemical; assay type: E. coli FB23281 (delta plsY) membranes
T1 sequence (P67164 1-202): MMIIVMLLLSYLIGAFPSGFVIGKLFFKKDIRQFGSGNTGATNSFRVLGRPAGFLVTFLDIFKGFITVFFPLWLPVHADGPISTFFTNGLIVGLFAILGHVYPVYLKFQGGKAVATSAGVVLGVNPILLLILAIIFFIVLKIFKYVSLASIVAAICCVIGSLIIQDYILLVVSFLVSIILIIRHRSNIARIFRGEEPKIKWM

S. aureus PlsY (SaPlsY) [2] = target: T1, S. aureus PlsY (SaPlsY); assay: biochemical; assay type: E. coli FB23281 (delta plsY) membranes; remark: listed apart in the source

Compound	MIC (S. pneumoniae R6) [µg/mL]	further results
CCCCCCCCCCCCCCCC(=O)NS(=O)(=O)Oc1ccc(CC(=O)OC)cc1 [compound 14, Methyl 2-(4-(N-palmitoylsulfamoyloxy)phenyl)acetate]	100 (≈ 207 µM)	–
CCCCCCCCCCCCCCCC(=O)NS(=O)(=O)Oc1ccc2c(OS(N)(=O)=O)coc2c1 [compound 21]	> 200	–
CCCCCCCCCCCCCCCC(=O)NS(=O)(=O)Oc1ccc(C(=O)OCC)cc1 [compound 15, Ethyl 4-(N-palmitoylsulfamoyloxy)benzoate]	200 (≈ 414 µM)	–
CCCCCCCCCCCCCCCC(=O)NS(=O)(=O)Oc1ccc(CCN)cc1 [compound 16]	–	IC50 (S. aureus PlsY (SaPlsY) [1]): > 100 µM
CCCCCCCCCCCCCCCC(=O)NS(=O)(=O)OC1CCNCC1 [compound 6]	–	IC50 (S. aureus PlsY (SaPlsY) [2]): > 100 µM
CCCCCCCCCCCCCCCC(=O)NS(=O)(=O)Oc1ccc(-c2ccc([N+](=O)[O-])cc2)cc1 [compound 18, 4'-nitrobiphenyl-4-yl palmitoylsulfamate]	100 (≈ 188 µM)	–
CCCCCCCCCCCCCCCC(=O)NS(=O)(=O)Oc1ccc2c(c1)OCO2 [compound 19, Benzo[d][1,3]dioxol-5-yl palmitoylsulfamate]	200 (≈ 439 µM)	–
CCCCCCCCCCCCCCCC(=O)NS(=O)(=O)Oc1ccc2ncccc2c1 [compound 20, Quinolin-6-yl palmitoylsulfamate]	> 200	–
